# Assay results: article PMC9656482, “In Vitro and In Vivo Biological Activity of Ruthenium 1,10-Phenanthroline-5,6-dione Arene Complexes” (International Journal of Molecular Sciences, 2022)
# Experiments:
# [1] = system: normal human dermal fibroblasts; test: Wound scratch assay; assay type: cell-based; settings: 24 h, IC50 of the complex, versus vector control
# Procedure: Cell migration is an essential process for tumor progression, being one of the major events that leads to cancer metastasis. To determine if JHOR11 inhibits cell tumorigenicity, the cell migration ability was analyzed by the wound scratch assay. […] The measure of the wound scratch after 0 h and 24 h allows the determination of the migration ability of the cells.
# For wound scratch assay normal human dermal fibroblasts were seeded on […] tissue plates in a cell density of 4 × 10^5 cells/plate and incubated at 37 °C, 5% (v/v), 99% (v/v) relative humidity until reach confluence. A sterile micropipette tip was then used to make a scratch on the confluent monolayer and medium was replaced by fresh medium supplemented with IC50 JHOR11 or 0.1% (v/v) DMSO, as vector control.
# [2] = system: HCT116 colorectal carcinoma cell line; test: MTS antiproliferative assay, HCT116; assay type: cell-based, human
# Procedure: (§1) The cytotoxic potential of the complexes was evaluated by assessing their viability using the 3-(4,5-dimethylthiazol-2-yl)-5-(3-carboxymethoxyphenyl)-2-(4-sulfophenyl)-2H tetrazolium, inner salt (MTS) colorimetric assay in three tumor cell lines—ovarian carcinoma, A2780, colorectal carcinoma, HCT116, and colorectal carcinoma resistant to doxorubicin, HCT116-Dox and in normal human primary dermal fibroblasts (Figure 1 and Figure S7).
# (§2) Normal dermal human fibroblasts, colorectal carcinoma cell line HCT116 and ovarian carcinoma cell line A2780 were acquired from ATCC (Manassas, VA, USA). […] Fibroblasts and HCT116 cells were cultured in Dulbecco’s modified Eagle medium (DMEM, Thermo Fisher Scientific) and A2780 cell line was cultured on Roswell Park Memorial institute 1640 (RPMI-1640, Thermo Fisher Scientific). Both media were supplemented with 10% (v/v) fetal bovine serum (FBS, Thermo Fisher Scientific) and a mixture of 100 U/mL penicillin and 100 mg/mL streptomycin. The supplemented media are referred to from this point on as DMEM or RPMI for simplicity. […] All experiments underwent at 37 °C, 5% (v/v) CO2 and 99% (v/v) humidity in the dark.
# (§3) Cells were seeded in a 96-well plate in a density of 7500 cells/well, and after 24 h was submitted to a concentration range between 0.1–50 µM of complexes JHOR10 and JHOR11. DMSO with a 0.1% (v/v) concentration was used as vector control and cisplatin was used as positive control in all replicates. After 48 h incubation, cellular viability was inferred with the Cell Titer 96® Aqueous One solution cell proliferation assay (Promega, Madison, WI, USA) according to the manufacturer’s instructions and procedures previously described [18, 40]. The absorbance of the produced Formazan was quantified with a Tecan microplate reader, Infinite M200 (Tecan, Mannedorf, Switzerland) and the analysis of the dose–response curves to determine the relative IC50 was performed with GraphPad Prism 8.2.1 software (GraphPad Software, La Jolla, CA, USA).
# [3] = system: A2780 ovarian carcinoma cell line; test: MTS antiproliferative assay, A2780; assay type: cell-based, human
# Procedure: as §1, §2, §3
# [4] = system: A2780 cells; test: Trypan blue exclusion method; assay type: cell-based, human; settings: A2780, 48 h
# Procedure: A2780 cells were exposed for 48 h to the IC50 of JHOR11, and to a concentration 10 times higher and 10 times lower the IC50, and the live (transparent) and dead (blue) cells that remained adherent or in the supernatant were counted (Figure 6). A2780 cells were also incubated with 0.1% (v/v) DMSO as a vector control, and 0.1 µM doxorubicin as positive control (Supplementary Information, Figure S8).
# A2780 cells were seeded on a 24-well culture plate at a density of 37,500 cells/well. After 24 h to assure cell adherence, the medium was replaced by fresh RPMI supplemented with 0.1% (v/v) DMSO, 0.1 µM Doxorubicin or JHOR11 complex in three different concentrations: 1/10 IC50, IC50 or 10 × IC50. After 8 h, 24 h or 48 h incubation, the supernatant was removed and mixed with trypan blue (Thermo Fisher Scientific) to a final concentration 0.1% (w/v). In parallel, cells were detached from the well, centrifuged at 500× g and pellet was resuspended in 0.1% (w/v) Trypan blue. The number of viable cells and cells with compromised membrane (stained with blue) in both fractions were counted in a haemocytometer (Hirschmann, Eberstadt, Germany) and a CXX41 inverted microscope (Olympus, Tokyo, Japan).
# [5] = system: A2780 cells; test: Autophagy assay (flow cytometry); assay type: cell-based, human; settings: A2780, 48 h, IC50 of JHOR11
# Procedure: To understand if the cytotoxic effect of the complex is correlated with autophagy, A2780 cells were exposed for 48 h to the IC50 of complex JHOR11. They were then incubated with an autophagic fluorescent dye (Abcam) that becomes highly fluorescent when incorporated into pre-autophagosomes, autophagosomes or autophagolysosomes. Cells were also incubated with DMSO 0.1% (v/v) for vehicle control, and with 1.5 μM rapamycin and 3.5 μM cisplatin as positive controls.
# The fluorescence quantification and percentage of autophagic cells was performed on an Attune acoustic focusing flow cytometer and respective software (Thermo Fisher Scientific).
# [6] = system: HCT116 cells injected into zebrafish embryos; test: Zebrafish embryo xenograft assay; assay type: in vivo; settings: 80 μM in embryo water from 1 dpi, read at 4 dpi
# Procedure: HCT116 human colorectal cancer cell line was incubated in standard conditions (37 °C and 5% CO2) until a confluence of 80% was reached. Afterwards, the cells were concentrated and labelled with DiI and injected into the circulation (Duct of Cuvier) of 48 hpf zebrafish embryos to assay the proliferation in vivo of the cells exposed to JHOR11 (80 μM). JHOR11 was dissolved in the embryo water at 1 dpi (days post-injection) for the embryos to recover from the injection and the establishment of the cancer cells in the caudal hematopoietic tissue (CHT), and was maintained until the end of the experiment at 4 dpi. Imaging of the embryos was performed at 1 dpi and 4 dpi to quantify the fluorescence and area of the cells in the tail of the embryos, where cells invade and grow, and measure their proliferation over time to assess the inhibitory effect of JHOR11 over the cells. […]
# The images were obtained with an AZ-100 Nikon fluorescence stereomicroscope at two different times ([…]) allowing in vivo monitoring of the proliferating HCT116 cells labelled within the zebrafish embryo. The analysis of the cell progression was carried out using Quantifish Software. This software analyzes each image by measuring its fluorescence above a manually set threshold that produces the integrated intensity of each image as the output. […]
# [7] = system: chicken embryo; test: Ex ovo chorioallantoic membrane (CAM) assay
# Procedure: Each chicken embryo was exposed to the IC50 of JHOR11 and 0.1% (v/v) DMSO as vector control and the number of vessels in each treated region was counted at 0 h, and after 24 h and 48 h incubation at 37 °C, as previously described [39].
# The CAM assay was performed as previously described [18, 39, 43]. Fertilized eggs with 48 h incubation were opened and stabilized for 24 h in white weighing boats. Two silicone rings were positioned in each embryo and 40 mL IC50 JHOR11 in phosphate-buffered saline (PBS) or 0.1% (v/v) DMSO in PBS, as vector control, were placed in each o-ring. The region delimited by each o-ring was photographed at 0 h, 24 h, 48 h with a digital USB microscope camera (Opti-Tekscope OT-V1). The newly formed veins were counted using ImageJ as previously described [37], and values were presented after normalization with the values obtained for control sample.
structure (smiles),measurement,setting,value
Cc1ccc(C(C)C)cc1.F[P-](F)(F)(F)(F)F.O=C1C(=O)c2cccnc2-c2ncccc21.[Cl][Ru+] [JHOR11],percentage of regeneration of the wound scratch,[1],no significant differences
same,IC50,"[2]; 48 h incubation, MTS, read-out: Relative IC50, HCT116",5.5 ± 0.3 µM
same,selective index in HCT116,[2]; relative to fibroblasts,8.1
same,IC50,"[3]; 48 h incubation, MTS, read-out: Relative IC50, A2780",1.2 ± 0.1 µM
same,selective index in A2780,[3]; relative to fibroblasts,37.4
same,cells in the supernatant at 1/10 IC50 (Trypan blue),[4]; 1/10 IC50,exclusively live cells
same,cells in the supernatant with increasing concentration (Trypan blue),"[4]; 1/10 IC50, IC50, 10 × IC50",increased percentage of cells in the supernatant
same,percentage of cells with autophagic events,[5],48.8 ± 7.5%
same,decrease of proliferation of HCT116 cells compared to control,[6],45%
same,newly formed vessels (angiogenesis),"[7]; IC50 of JHOR11, 24 h and 48 h, versus DMSO-treated regions",no anti- or pro-angiogenic effects
same,death of chicken embryos,"[7]; six embryos, 48 h, IC50 of JHOR11",did not induce the death
